Experimental data as given in patent US5389643A, “Aminobenzoic acid derivatives useful for treating gastro-intestinal conditions” (Eisai Co., Ltd., priority 1992, dated 1995).
Where a name gives a salt, the structure may show the parent alone. Read-outs that look alike come from different tables or passages of the source.

Assays:
[1] = molecular target: T1, 2-methylserotonin-induced contraction of the ileum (5-HT3 antagonism) (Cavia porcellus, UniProt O70212); assay: Antagonism against 2-methylserotonin-induced contraction or systole of ileum; assay type: cell-based, guinea pig (Hartley male); conditions: test compound added 30 minutes before 2-methylserotonin; nonterminal ileum, 37° C.; read-out: pA2 (converted)
T1 construct: from tissue; host or cells: isolated nonterminal ileum of male Hartley guinea pig
T1 sequence (O70212 20-490): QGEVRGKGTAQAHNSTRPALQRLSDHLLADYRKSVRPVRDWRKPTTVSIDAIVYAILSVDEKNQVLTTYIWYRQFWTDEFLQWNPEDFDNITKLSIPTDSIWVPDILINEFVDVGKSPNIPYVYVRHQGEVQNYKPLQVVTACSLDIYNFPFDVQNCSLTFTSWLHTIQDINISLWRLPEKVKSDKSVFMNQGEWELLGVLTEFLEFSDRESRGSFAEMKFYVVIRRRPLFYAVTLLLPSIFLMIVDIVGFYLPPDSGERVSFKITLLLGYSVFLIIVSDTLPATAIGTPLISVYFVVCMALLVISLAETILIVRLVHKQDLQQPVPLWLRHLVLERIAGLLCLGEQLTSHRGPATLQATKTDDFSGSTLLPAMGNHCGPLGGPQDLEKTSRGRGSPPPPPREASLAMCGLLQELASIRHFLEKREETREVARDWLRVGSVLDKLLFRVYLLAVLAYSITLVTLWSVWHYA
Experimental: Antagonism against 2-methylserotonin-induced contraction or systole of ileum
This experiment was made according to the method of Sanger et al. [see Eur. J. Pharmacol., 159, 113-124 (1989)]. The nonterminal ileum of a Hartley male guinea pig was suspended in the Krebs-Henseleit solution (37° C.) by applying a load of 0.5 g to the end of the ileum and a gaseous mixture comprising 95% of oxygen and 5% of carbon dioxide was passed through the solution. The contraction of the ileum was isometrically determined. After allowing the ileum to stand for one or more hours for stabilization, a solution of a test compound was added to the solution, and after 30 minutes, 2-methylserotonin was noncumulatively added. The pA2 value was calculated from the rightward shift of the dose-response curve of the 2-methylserotonin-induced contraction caused by the test compound according to the method of Rossum et al. [see Arch. Int. Pharmacodyn., 143, 299(1963)]. BRL 24682 was used as a control in this experiment.

[2] = test system: contraction of guinea pig ileum induced by electrical field stimulation (acetylcholine release); assay: Effect of increasing contraction of guinea pig ileum induced by electrical field stimulation; assay type: cell-based; conditions: electrical field stimulation once per 10 seconds, cumulative addition at intervals of 10 minutes, 37° C., read-out: Min. concn. causing increment of ileal contraction
Experimental: Effect of increasing contraction of guinea pig ileum induced by electrical field stimulation
This experiment was made according to the method of Sanger et al. [see Br. J. Pharmacol., 91, 77-87 (1987)]. The longitudinal muscle of the nonterminal ileum of a guinea pig was separated and vertically suspended in the Krebs-Henseleit solution (37° C.) in a Magnus tube by applying a load of 0.5 g to the end of the muscle. A mixed gas comprising 95% of oxygen and 5% of carbon dioxide was passed through the solution. The contraction of the muscle was isometrically determined. Electrical field stimulation was applied to the muscle by the use of a platinum electrode once per 10 seconds to induce the contraction of the muscle. The contraction was caused through the release of acetylcholine. After the muscle had been stabilized, a solution of a test compound was cumulatively added into the Magnus tube at intervals of 10 minutes. The effect of the test compound is represented by percentage based on the initial contraction. The minimum concentration of each test compound at which an increment was found in the contraction due to the release of acetylcholine is shown in Table 4.

[3] = test system: gastric emptying function; assay: Activity for raising gastric emptying function; assay type: in vivo, Fischer male rats; conditions: oral (5 ml/kg), one hour before test food, versus control rat
Experimental: Activity for raising gastric emptying function
This experiment was made according to the method of Decktot et al. [see Eur. J. Pharmacol., 147, 313-316 (1988)]. Fischer male rats (weight: 160 to 180 g) were fasted for 18 hours before 3 ml of a test food comprising methylcellulose, beef broth, casein, sugar and corn starch was orally administered to each rat. One hour after the administration, the stomach was extirpated from each rat. The gastric emptying ratio was calculated from the weight of the test food remaining in the stomach. The ratio of rise of the gastric emptying function was determined by comparing the gastiric emptying ratio of a medicated rat with that of a control rat which had not administered any test compounds. Each test compound (5 ml/kg) was orally administered one hour before the administration of the test food. BRL 24682 was used as a control in this experiment.

[4] = test system: cisplatin-induced vomiting; assay: Activity against cisplatin-induced vomiting of beagle; assay type: in vivo; conditions: intravenous, one hour after cisplatin 3 mg/kg, 5-hour observation
Experimental: Activity against cisplatin-induced vomiting of beagle
Beagles weighing 7 to 12 kg were used. 3 mg/kg of cisplatin (a product of Sigma) (1 ml/kg of physiological saline) was administered to each beagle through the vein of its forefoot. One hour after the administration of cisplatin, physiological saline (0.2 ml/kg) was administered to a control group of beagles and a solution of a test compound in physiological saline was administered to a test group of beagles, each through the vein of the other forefoot. The frequency of vomiting observed over a 5-hour period from the administration of cisplatin was recorded and the inhibitory ratio of the test compound was calculated according to the following formula.

rat = assay: Oral toxicity in rat, one week; assay type: in vivo; conditions: dose of up to 30 mg/kg
[5] = listed as 42 (+)-isomer, hydrochloride
[6] = listed as 43 (-)-isomer, hydrochloride

`C#CCC(C)Oc1cc(N)c(Cl)cc1C(=O)N[C@H]1C[C@H]2CC[C@@H](C1)N2C` (single isomer, unassigned; (+)) [Example 42, (+)-endo-4-Amino-5-chloro-N-(8-methyl-8-azabicyclo[3.2.1]oct-3-yl)-2-{(4-pentyn-2-yl)oxy}benzamide hydrochloride] was tested, and the Kb [1] was 1.2 nM, the minimal effective concentration [2, 5] was 0.086 µM and the “Ratio of rise of gastric emptying function” value [3, 5] was 22.2%. The “Inhibitory ratio against cisplatin-induced vomiting” value (from here on “Inhibitory ratio”) ([4]; 0.03 mg/kg) was 59% and the “Inhibitory ratio” value ([4]; 0.1 mg/kg) was 92%.
`CC#CC(C)Oc1cc(N)c(Cl)cc1C(=O)N[C@H]1C[C@H]2CC[C@@H](C1)N2C` (single isomer, unassigned; (-)) [Example 4, (-)-endo-4-Amino-5-chloro-N-(8-methyl-8-azabicyclo[3.2.1]oct-3-yl)-2-{(3-pentyn-2-yl)oxy)benzamide hydrochloride] was tested, and the Kb [1] was 2.69 nM, the “toxicity on oral administration for one week” value (rat) was “no toxicity was exhibited in a dose of up to 30 mg/kg” and the minimal effective concentration ([2]; listed as 4 (+)-isomer, hydrochloride) was 0.056 µM. The “Ratio of rise of gastric emptying function” value [3] was 31.1%, the “Inhibitory ratio” value ([4]; 0.03 mg/kg) was 37% and the “Inhibitory ratio” value ([4]; 0.1 mg/kg) was 78%.
For `C#CCC(C)Oc1cc(N)c(Cl)cc1C(=O)N[C@H]1C[C@H]2CC[C@@H](C1)N2C` (single isomer, unassigned; (-)) [Example 43, (-)-endo-4-Amino-5-chloro-N-(8-methyl-8-azabicyclo[3.2.1]oct-3-yl)-2-{(4-pentyn-2-yl)oxy}benzamide hydrochloride], the “toxicity on oral administration for one week” value (rat) was “no toxicity was exhibited in a dose of up to 30 mg/kg”, the minimal effective concentration [2, 6] was 0.47 µM and the “Ratio of rise of gastric emptying function” value [3, 6] was 12.9%.
In the case of `C#CCOc1cc(N)c(Cl)cc1C(=O)N[C@H]1C[C@H]2CC[C@@H](C1)N2C` [Example 21, endo-4-Amino-5-chloro-(8-methyl-8-azabicyclo[3.2.1]oct-3-yl)-2-propargyloxybenzamide hydrochloride], the Kb [1] is reported as 3.47 nM, the minimal effective concentration ([2]; Cavia porcellus, 10 min) is reported as 0.052 µM and the “Ratio of rise of gastric emptying function” value [3] is reported as 18.9%. For the same compound, the “Inhibitory ratio” value ([4]; 0.3 mg/kg) was 100%.
`CC(Oc1cc(N)c(Cl)cc1C(=O)N[C@H]1C[C@H]2CC[C@@H](C1)N2C)C1CCCC1` (stereo partly drawn) [Example 32, endo-4-Amino-5-chloro-2-(1-cyclopentylethoxy)-N-(8-methyl-8-azabicyclo[3.2.1]oct-3-yl)benzamide hydrochloride] was tested, and the Kb [1] was 0.933 nM, the minimal effective concentration ([2]; Cavia porcellus, 10 min) was over 100 µM and the “Ratio of rise of gastric emptying function” value [3] was 18.3%.
